Paper PMC8858294, “Impact of distant peptide substrate residues on enzymatic activity of SlyD” (Cellular and Molecular Life Sciences: CMLS, 2022)
Ends that are not written are not given here.

Tests used:
[1] = target: T1, SlyD^WT IF (chaperone) domain (Thermus thermophilus, UniProt Q5SLE7); experiment: biochemical; format: binding
T1 sequence (Q5SLE7 70-117): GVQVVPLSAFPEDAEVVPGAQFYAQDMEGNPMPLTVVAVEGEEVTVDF
Procedure: (§1) ITC was measured using MicroCal VP-ITC calorimeter (Malvern) and analysed with MicroCal ITC-ORIGIN Analysis Software. First 1 × 3 µl and then 42 × 6.5 µl of 1.2 mM peptides dissolved in 20 mM HEPES (pH 7.5) and 100 mM NaCl were injected every 240 s from the syringe into the cell containing 50 µM SlyD at 25 °C. The resulting isotherms were fitted with one binding site model in case of SlyDΔIF construct and with two binding site model in case of the wild-type SlyD.

[2] = target: T2, SlyD^WT FKBP (PPIase) domain (Thermus thermophilus, UniProt Q5SLE7); experiment: biochemical; format: binding
T2 sequence (Q5SLE7 1-149): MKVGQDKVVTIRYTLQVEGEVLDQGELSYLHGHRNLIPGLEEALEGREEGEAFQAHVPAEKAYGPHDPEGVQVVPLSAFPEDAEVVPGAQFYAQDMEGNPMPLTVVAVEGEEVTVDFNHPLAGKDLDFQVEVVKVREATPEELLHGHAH
Procedure: as §1

[3] = system: SlyD^WT FKBP (PPIase) domain; experiment: biochemical; format: binding, Thermus thermophilus; details: ITC, SlyD^WT and SlyDΔIF
Procedure: as §1

SlyD^WT = experiment: Label-free 1H NMR lineshape prolyl isomerase activity assay with SlyD^WT; format: biochemical, Thermus thermophilus; details: for kcat/KM (SlyD^WT): 1H NMR lineshape analysis, 100 µM peptide, 0 to 6 µM enzyme, 25 °C, 20 mM HEPES, 100 mM NaCl, pH 7.5, linear regression of exchange rate vs enzyme concentration, technical triplicates, error one standard deviation
Procedure: (§2) ^1H NMR spectra of 100 µM peptide samples in 20 mM HEPES, 100 mM NaCl, pH 7.5 were acquired on a Bruker Avance III NMR-spectrometer at 25 °C and different concentrations of enzyme (0 to 6 µM). Samples contained 10% (v/v) D2O and 0.5 mM TCEP. Spectra have been corrected by subtracting identically measured and processed spectra of enzyme only samples, in order to rule out any influence of signals from the enzymes. Spectra were processed using Topspin (Bruker, Inc) and analyzed in MATLAB (mathworks). […] The obtained relative line broadening of the cis and trans signals of methyl group I, is caused by chemical exchange between the two forms and depends on the population of the cis and trans forms, their chemical shift difference (which are both known from experiments without enzyme) and the apparent exchange rate which was derived from the fit. Errors in the fitted parameters were estimated using Monte-Carlo simulations; the reported errors correspond to one standard deviation.
(§3) Tetrapeptides terminally fused with fluorophores sensitive to proline isomerization have been routinely used to study the activity of peptidyl-prolyl cis–trans isomerases, such as SlyD [11]. […] Studying longer peptides usually requires 2D NMR spectroscopy, often in combination with ^13C labeling, in order to detect separate signals for the cis and trans state. […] This approach, which was initially developed for chemically modified tetrapeptides, relies only on the interaction of a leucine residue upstream of the proline (i − 1) and a phenylalanine residue downstream of the proline (i + 1). The different orientations of the leucine and phenylalanine residues in cis and trans proline conformations give rise to different signals for one of the leucine methyl groups (I), while the other methyl group (II) is mostly unaffected (Fig. 2A). At the same time, the impact of the proline cis/trans conformation on the leucine methyl groups is not dependent on the length of the peptide. The only requirement for the design of the peptide substrate is the absence of additional leucine, isoleucine or valine residues that could interfere with the NMR signals of interest. The linewidth of the signals is affected by the enzymatic turnover rate, which itself is dependent on the enzyme concentration (Fig. 2A). The enzymatic activity (kcat/KM) is then determined by the linear regression of the determined rate at various enzyme concentrations at a fixed substrate concentration below KM (Fig. 2B and SI Fig. 1).

SlyDΔIF [4] = target: T3, SlyDΔIF (Thermus thermophilus, UniProt Q5SLE7); experiment: Label-free 1H NMR lineshape prolyl isomerase activity assay with SlyDΔIF; format: biochemical; details: 1H NMR lineshape analysis, 100 µM peptide, 0 to 6 µM enzyme, 25 °C, 20 mM HEPES, 100 mM NaCl, pH 7.5; linear regression of exchange rate vs enzyme concentration; technical triplicates; error one standard deviation
Procedure: as §2, §3

SlyDΔIF [5] = target: T3, SlyDΔIF; experiment: ITC, peptide binding to SlyDΔIF (one binding site model); details: read-out: KD (SlyDΔIF), 1.2 mM peptide into 50 µM SlyD, 25 °C, 20 mM HEPES pH 7.5, 100 mM NaCl, ± error of fit
Procedure: as §1

| Substance | Kd [1] [µM] | Kd [2] [µM] | reduction in affinity compared to the psWT peptide [3] | kcat/KM (SlyD^WT) (SlyD^WT) [M⁻¹ s⁻¹] | kcat/KM (SlyDΔIF) (SlyDΔIF [4]) [M⁻¹ s⁻¹] | Kd (SlyDΔIF [5]) [µM] | increase of activity by the chaperone domain (factor, SlyD^WT vs SlyDΔIF) (SlyD^WT; 15-residue peptide at 100 µM, chaperone domain occupied) |
| --- | --- | --- | --- | --- | --- | --- | --- |
| H-TRYENAKMLPFAFGA-OH [W4E] | 0.86 ± 0.02 | 13.9 ± 0.9 | up to fivefold | 4.4e+06 ± 200000 | 900000 ± 200000 |  |  |
| H-TRYKNAKMLPFAFGA-OH [W4K] | 0.21 ± 0.01 | 3.2 ± 0.3 |  | 2.2e+06 ± 300000 | 3.5e+06 ± 700000 | 12.6 ± 0.8 |  |
| H-TRYWNAKMLPFAEGA-OH [F13E] | 1.15 ± 0.01 | 10.4 ± 0.5 | up to fivefold | 7e+06 ± 600000 | 100000 ± 100000 | 36.1 ± 0.8 |  |
| H-TRYWNAKMLPFAFGL-OH [A15L] | 0.16 ± 0.02 | 4.1 ± 0.1 |  |  |  | 14.8 ± 0.2 |  |
| H-TRYWNAKMLPFAFMA-OH [G14M] | 0.1 ± 0.01 | 2.2 ± 0.1 |  |  |  | 8.3 ± 0.5 |  |
| H-TRYWNAKMLPFAKGA-OH [F13K] | 0.11 ± 0.02 | 5.2 ± 0.2 |  | 3.4e+06 ± 100000 | 2.3e+06 ± 300000 | 20 ± 0.7 |  |
| R2A: psWT peptide substrate with mutation R2A (TAYWNAKMLPFAFGA) |  |  |  | 5.1e+06 ± 300000 | 1.3e+06 ± 200000 |  |  |
| TRAWNAKMLPFAFGA [Y3A] | 0.72 ± 0.1 | 17.3 ± 1.3 |  | 3.9e+06 ± 400000 | 2.5e+06 ± 300000 | 51.5 ± 8.6 |  |
| TRYANAKMLPFAFGA [W4A] | 0.75 ± 0.06 | 8.4 ± 0.4 |  | 2e+06 ± 200000 | 1.1e+06 ± 200000 |  |  |
| TRYWNAKALPFAFGA [M8A] | 0.24 ± 0.01 | 6 ± 0.1 |  | 7.7e+06 ± 900000 | 3.1e+06 ± 100000 | 19.4 ± 1 |  |
| TRYWNAKMLPFAAGA [F13A] | 0.38 ± 0.02 | 6.4 ± 0.3 |  | 3.1e+06 ± 100000 | 400000 ± 100000 | 22.7 ± 0.6 |  |
| TRYWNAKMLPFAFGA [psWT] | 0.22 ± 0.01 | 3.5 ± 0.1 |  | 4.9e+06 ± 300000 | 2.2e+06 ± 300000 | 15.6 ± 0.2 | 2.2 |
